How the values were obtained:
HBV = HBV production assay; assay type: cell-based; settings: Hepatitis B virus, 144 h; HepG2.2.15 cells, 6 days, HBV DNA in supernatant by qPCR
Description: HepG2.2.15 cells were maintained and seeded as described above. After administration of test compounds for 6 days, supernatant was collected and clarified by low speed centrifugation. HBV DNA was released from virion in the supernatant by incubating in lysis buffer (Roche, Catalog #07248431001). HBV DNA levels were quantified by qPCR/TaqMan assay. The nucleoside analog Entecavir (ETV) was used as a control to determine inhibition of HBV virion production in the supernatant. Table 4 illustrates EC50 values obtained by the HBV production assay for selected compounds.

HBsAg = HBsAg assay; assay type: cell-based, hepatitis B virus; settings: Hepatitis B virus, HepG2.2.15, 144 h, read-out: sAg EC50, μM, HepG2.2.15 cells, day 6
Procedure, shortened: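 HepG2.2.15 cells were treated with serially diluted compounds (0.5% DMSO), with medium and compound renewed after 2-3 days. Secreted HBsAg measured at day 6 by chemiluminescence immunoassay; EC50 from dose-response curves. Viability assessed in parallel by CellTiter-Glo.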

[1] = clearance from blood plasma in dogs; assay type: in vivo
Source text: (§1) The compounds of the invention disclosed in the present application were screened to evaluate their potency and toxicity profiles. Several compounds having desirable potency and toxicity profiles were identified in these screens.

isolated heart = experiment: Langendorff assay; settings: any of the concentrations tested
Source text: as §1

Row | Structure (SMILES) | EC50 (HBV) [µM] | other results
1 | COCCCOc1cc2c(cc1Cl)-c1cc(=O)c(C(=O)O)cn1[C@H](C(C)C)CO2 [drawing 614] | 0.009 | –
2 | COCCCOc1cc2c(nc1OC)-c1cc(=O)c(C(=O)O)cn1[C@H](C(C)C)C2 (single isomer, unassigned) [Example 22] | – | EC50 (HBsAg): 0.002 µM; clearance from blood plasma [1]: cleared relatively slowly; effect on measured electrocardiogram parameters (isolated heart): no effect on any of the measured electrocardiogram parameters
3 | CC(C)[C@@H]1COc2cc(OCCCO)c(Cl)cc2-c2cc(=O)c(C(=O)O)cn21 [drawing 616] | 0.007 | –
4 | COCCOc1cc2c(cc1Cl)-c1cc(=O)c(C(=O)O)cn1C(C(C)C)CO2 (stereo not drawn) [drawing 618] | 0.046 | –
5 | COc1cc2c(cc1Cl)-c1cc(=O)c(C(=O)O)cn1C(C(C)C)CO2 (stereo not drawn) | 0.077 | –
6 | CC(C)[C@@H]1COc2cc(OCCCCO)c(Cl)cc2-c2cc(=O)c(C(=O)O)cn21 [drawing 617] | 0.02 | –
7 | COCCCOc1cc2c(nc1OC)-c1cc(=O)c(C(=O)O)cn1[C@H](C(C)C)C2 [drawing 615] | 0.0004 | –
8 | CC(C)(C)C1Cc2cc3c(cc2-c2cc(=O)c(C(=O)O)cn21)OCCCO3 (stereo not drawn) [drawing 612] | 0.007 | –
9 | COc1cc2c(nc1OC)-c1cc(=O)c(C(=O)O)cn1C(C(C)C)C2 (stereo not drawn) [drawing 619] | 0.002 | –
10 | COc1cc2c(cc1Cl)-c1cc(=O)c(C(=O)O)cn1[C@H](C(C)C)CO2 | 0.03 | –

Source: patent US11013726B2 (Arbutus Biopharma Corporation, priority 2016, dated 2021)
